From PubChem BioAssay (NCI)
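All cell lines were grown in 96-well plates and treated with compound for 48 hours. GI50 = concentration required for 50% inhibition of growth. TGI marks complete inhibition of growth.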

What was measured:
Assay in all cases: NCI tumour cell line growth inhibition, 48 h
KM20L2 colon = system: KM20L2 colon
P388/ADR leukemia = system: P388/ADR leukemia
DLD-1 colon = system: DLD-1 colon
DMS 114 small cell lung = system: DMS 114 small cell lung
HOP-18 NSCLC = system: HOP-18 NSCLC
NCI-H460 lung = system: NCI-H460 lung
P388 leukemia = system: P388 leukemia
XF 498 CNS = system: XF 498 CNS
SNB-78 CNS = system: SNB-78 CNS
M19-MEL melanoma = system: M19-MEL melanoma
SN12K1 renal = system: SN12K1 renal
DMS 273 small cell lung = system: DMS 273 small cell lung
LXFL 529 NSCLC = system: LXFL 529 NSCLC
RXF-631 renal = system: RXF-631 renal

S=P1(Sc2ccccc2)Oc2ccc3ccccc3c2-c2c(ccc3ccccc23)O1 showed a TGI (KM20L2 colon) of over 100 µM, a TGI (P388/ADR leukemia) of over 100 µM and a TGI (DLD-1 colon) of over 100 µM. The TGI (DMS 114 small cell lung) was over 100 µM, the TGI (HOP-18 NSCLC) was over 100 µM and the TGI (NCI-H460 lung) was over 100 µM. The TGI (P388 leukemia) was over 100 µM, the TGI (XF 498 CNS) was over 100 µM and the TGI (SNB-78 CNS) was over 100 µM. It also gave a TGI (M19-MEL melanoma) of over 100 µM, a TGI (SN12K1 renal) of over 100 µM and a TGI (DMS 273 small cell lung) of over 100 µM.
O=C1CCCCCCC2=C1C(Sc1ccccc1)CC2 (stereo not given) gave a TGI (KM20L2 colon) of over 100 µM, a TGI (DMS 114 small cell lung) of 76.4 µM and a TGI (HOP-18 NSCLC) of over 100 µM. It also gave a TGI (NCI-H460 lung) of over 100 µM, a TGI (SNB-78 CNS) of over 100 µM and a TGI (M19-MEL melanoma) of over 100 µM. The TGI (DMS 273 small cell lung) was 61.7 µM and the TGI (LXFL 529 NSCLC) was over 100 µM.
Cc1c(NC(=S)Nc2ccc([N+](=O)[O-])cc2)c(=O)n(-c2ccccc2)n1C gave a TGI (NCI-H460 lung) of over 100 µM.
With CCCCSC1=N/C(=C\c2ccccc2O)C(=O)N1 the TGI (NCI-H460 lung) was over 100 µM.
COC(=O)C1=C(C)NC(=O)N2[C@@H](CCOCc3ccccc3)CC[C@@H]12 was tested, and the TGI (NCI-H460 lung) was over 50 µM.
In the case of C#CC1(O)CCC2[C@@H]3CCc4cc(Oc5nc(F)nc(-c6c(C)c(C(=O)OCC)n7ccccc67)n5)ccc4C3CC[C@@]21C (stereo not given in full), the TGI (NCI-H460 lung) is reported as over 100 µM.
Molecule COc1ccc(C2SCC(=O)N2c2ccc(-n3c(-c4ccccc4)nc4ccccc4c3=O)cc2)cc1 (stereo not given) has a TGI (NCI-H460 lung) of over 100 µM.
With CC(C)(C)OC(=O)NCC(CNC(=O)OC(C)(C)C)C(N)=O the TGI (NCI-H460 lung) was over 100 µM.
COc1ccc(/C=N\N(C)Cc2cccc3ccsc23)cc1 was tested, and the TGI (NCI-H460 lung) was over 100 µM.
In the case of Cc1nc(-c2ccccc2)cn2c1nc1ccccc12, the TGI (NCI-H460 lung) is reported as 37.1 µM.
Work on CCOC(=O)C12CCC(=O)N1N(C)c1ncccc1N2 (stereo not given) yielded a TGI (NCI-H460 lung) of over 100 µM.
Molecule Cn1c(-c2ccc(C=O)o2)ccc1-c1ccc(C=O)o1 has a TGI (NCI-H460 lung) of over 100 µM.
Work on NC1=Nc2ccccc2Sc2nncn21 yielded a TGI (NCI-H460 lung) of over 100 µM.
NCC(=O)Nc1ccccc1 showed a TGI (NCI-H460 lung) of over 100 µM.
CCOC(=O)C(NC(=O)c1cccc(Cl)c1)(Nc1ccc(S(=O)(=O)Nc2cc(C)on2)cc1)C(F)(F)F (stereo not given) was tested, and the TGI (NCI-H460 lung) was over 100 µM.
In the case of CN1CCC2(CC1)SSC1(CCN(C)CC1)S2, the TGI (NCI-H460 lung) is reported as over 100 µM.
In the case of CC1OC(OC2C(O)COC(OC3C(C)OC(OC4C(OC(=O)[C@]56CCC(C)(C)C[C@@H]5C5=CCC7[C@@]8(C)C[C@H](O)[C@H](OC9OC(CO)C(O)C(O)C9O)[C@@](C)(CO)[C@@H]8CC[C@@]7(C)[C@]5(C)CC6)OCC(O)C4O)C(O)C3O)C2O)C(O)C(O)C1O (stereo not given in full), the TGI (NCI-H460 lung) is reported as 48.6 µM.
Work on Nc1ncnc2c1ncn2[C@H]1C=C[C@@H](NO)C1 yielded a TGI (NCI-H460 lung) of over 100 µM.
For CC1C(C)(C)C23CC12C1(OCCO1)C3Br (stereo not given), the TGI (NCI-H460 lung) was over 100 µM.
In the case of Cc1ccc2c(c1)nc1n2C(c2c(F)cccc2F)SC1 (stereo not given), the TGI (NCI-H460 lung) is reported as over 100 µM.
Molecule C#C[C@]1(O)CC[C@H]2[C@@H]3CCC4=C/C(=N\OCCN5CCCCC5)CC[C@]4(C)[C@H]3CC[C@@]21C has a TGI (NCI-H460 lung) of 27.4 µM.
In the case of Cc1nc2c(c(N3CCN(C)CC3)n1)Cc1ccccc1-2, the TGI (NCI-H460 lung) is reported as 47.4 µM.
With O=C(O)c1nc2cc(Cl)ccc2[nH]c1=O the TGI (NCI-H460 lung) was over 100 µM.
For CO/C=C(/C(=O)OC)[C@@H]1C[C@@H]1c1ccc2ccccc2c1, the TGI (NCI-H460 lung) was over 100 µM.
O=C1C(Cl)=C(Cl)C(=O)C(CCNc2nccs2)=C1Cl was tested, and the TGI (NCI-H460 lung) was over 100 µM.
Work on CN(C)Cc1cc(Cl)c(O)c(CN(C)C)c1 yielded a TGI (NCI-H460 lung) of over 100 µM.
Work on COC(=O)C1=CO[C@@H](C)[C@@H]2Cn3ccc4c5ccccc5nc-4c3C[C@H]12 yielded a TGI (KM20L2 colon) of over 100 µM, a TGI (DLD-1 colon) of over 100 µM and a TGI (DMS 114 small cell lung) of over 100 µM. It also gave a TGI (HOP-18 NSCLC) of over 100 µM, a TGI (NCI-H460 lung) of over 100 µM and a TGI (RXF-631 renal) of over 100 µM. The TGI (XF 498 CNS) was over 100 µM, the TGI (SNB-78 CNS) was over 100 µM and the TGI (M19-MEL melanoma) was over 100 µM. It also gave a TGI (DMS 273 small cell lung) of over 100 µM and a TGI (LXFL 529 NSCLC) of over 100 µM.
In the case of CC(=O)OCc1c(O)c2c([nH]c1=O)CCc1ccccc1-2, the TGI (KM20L2 colon) is reported as 263 µM, the TGI (DLD-1 colon) is reported as 162 µM and the TGI (DMS 114 small cell lung) is reported as 155 µM. It also gave a TGI (HOP-18 NSCLC) of 295 µM, a TGI (NCI-H460 lung) of 283 µM and a TGI (RXF-631 renal) of 149 µM. It also gave a TGI (XF 498 CNS) of 104 µM, a TGI (M19-MEL melanoma) of 108 µM and a TGI (DMS 273 small cell lung) of 159 µM. For the same molecule, the TGI (LXFL 529 NSCLC) was 111 µM.
With CC(NC1=NCCO1)c1ccccc1Cl (stereo not given) the TGI (NCI-H460 lung) was over 100 µM.
Nn1c(CCCCCCCCc2nnc(-c3c(O)ccc4ccccc34)n2N)nnc1-c1c(O)ccc2ccccc12 was tested, and the TGI (NCI-H460 lung) was over 100 µM.
CCCCN(CC)C(=O)C(=O)Cc1nc2ccc(C(=O)c3ccccc3)cc2[nH]c1=O showed a TGI (KM20L2 colon) of over 100 µM, a TGI (DLD-1 colon) of over 100 µM and a TGI (DMS 114 small cell lung) of over 100 µM. It also gave a TGI (NCI-H460 lung) of over 100 µM, a TGI (SNB-78 CNS) of over 100 µM and a TGI (M19-MEL melanoma) of over 100 µM. It also gave a TGI (DMS 273 small cell lung) of over 100 µM and a TGI (LXFL 529 NSCLC) of over 100 µM.
In the case of S=C(NCc1ccccc1)Nc1sc(=NCc2ccccc2)nc2sc3c(c12)CCN(N1CCc2c(sc4nc(=NCc5ccccc5)sc(NC(=S)NCc5ccccc5)c24)C1)C3, the TGI (NCI-H460 lung) is reported as over 83.9 µM.
Work on OC1NC2Nc3ccccc3NC2NC1O (stereo not given) yielded a TGI (NCI-H460 lung) of over 100 µM.
Molecule COc1c2c(c3c(c1OC)c(=O)c1ccccc1n3C)OCO2 has a TGI (NCI-H460 lung) of over 100 µM.
FC1(F)ON2CCc3ccccc3C2[C@H]1c1ccccc1 (stereo not given in full) showed a GI50 (NCI-H460 lung) of over 100 µM and a TGI (NCI-H460 lung) of over 100 µM.
